Test results taken from patent US5505715A, “Iontophoretic transdermal delivery of deoxyspergualin compounds” (priority 1994, dated 1996).
“Also recorded” adds a separate entry of the source. Where two headings read alike, the source gives them in different places.

Tests used:
[1] = test system: organ transplant rejection; conditions: humans; cited from earlier work
[2] = test system: immune activity; conditions: cited from earlier work
[3] = test system: interleukin-2 production; conditions: cited from earlier work
[4] = test system: allograft survival; conditions: used prophylactically; cited from earlier work
[5] = Protocol: Applicants have evaluated the in vitro delivery of DSG through human cadaver skin using iontophoresis.
An in vitro skin permeation study was conducted to evaluate the iontophoretic transdermal delivery of deoxyspergualin trihydrochloride (DSG) (MW=496) through human cadaver skin mounted in side-by-side glass diffusion cells. A 1.09% w/v solution of DSG was used as the donor solution. The receptor solution was 0.5M NaH2 PO4 aqueous solution. A commercially available power supply (Scepter, Keltronics Corp., Oklahoma City, Okla.) was used. Platinum electrodes were used for this study. The anode was connected to the electrode in the donor side while the cathode was connected to the electrode in the receptor (counterion) fluid. A constant DC current (0.5 mA, 0.78 mA/cm^2) was applied for a period of 48 hours. The receptor solution was sampled at appropriate time intervals. The samples were analyzed for DSG by reverse-phase HPLC using post-column derivatization and fluorescence detection.

[6] = test system: tumors; conditions: cited from earlier work
[7] = test system: rheumatoid arthritis, diabetes, lupus and multiple sclerosis models; conditions: in vivo; cited from earlier work
[8] = design: species or system fuzzy rat; conditions: rat, in vivo
Protocol: Applicants have further conducted an in vivo study to investigate the rate and extent of absorption of DSG in fuzzy rats following transdermal iontophoretic administration. Using iontophoresis, approximately 4 mg of DSG (i.e., between 15-20 mg/kg) was delivered to fuzzy rats over a three-hour period. This is equivalent to a delivery rate of about 230 μg/cm^2 /hr of DSG. Relatively high serum levels of DSG, about 18 μg/ml, were observed after iontophoretic administration.
An aqueous solution of DSG trihydrochloride (10 mg/ml) was prepared two days prior to the experiment and stored at -5° C. until the start of the experiment. This solution was kept refrigerated during the course of the experiment.
Four male fuzzy rats from Harlan Laboratories (Indianapolis, Ind.) were used in this study after a one week quarantine period. The fuzzy rat is a hypotrichotic genetic mutuant of the normal albino rat. The main difference between adult fuzzy and normal haired rats is the poorly developed hair follicles in the skin of the former. As a result, adult fuzzy rats are almost devoid of hair. The fuzzy rats have an intact immune system. […]
Blood samples were taken from the tail artery during the treatment and at the end of the treatment period. […] Blood samples, used electrodes and skin wipes, and urine were analyzed for DSG by scintillation counting. The urine samples were also analyzed by HPLC.

[9] = test system: anti-KLH antibody response (keyhole limpet hemocyanin); assay: in vivo immunosuppression (anti-KLH antibody response) in fuzzy rats; design: species or system fuzzy rat
Source text: The humoral response of animals to the foreign protein keyhole limpet hemocyanin (KLH) is used routinely as a model system to test the efficacy of immunosuppressive drugs. Activity in this model has correlated well with activity for suppressing rejection of an allograft or suppressing the development of autoimmune disease in animals. […] The antibody level in the treated animals on the fourteenth day following the initial treatment was still only 6% of the level of the control animals.
Six fuzzy rats were used in this study. The procedure for this study was based on the model described by Tepper et al., Inhibition of Antibody Production by the Immunosuppressive Agent, 15-Deoxyspergualin, Transplant Proc., 23:328-32 (1991). This model involves immunizing the animals with a potent immunogenic antigen, keyhole limpet hemocyanin (KLH). The serum anti-KLH antibody levels (immune response) in the control and treated animals are then measured over 14 days. An effective immunosuppressive agent should result in a suppression of the immune response in the treated animals.
All six fuzzy rats were immunized with a solution of keyhole limpet hemocyanin (1 mg) by intraperitoneal injection. Two rats were used as controls and were not treated with DSG. The other four rats received DSG by transdermal iontophoresis. The electrodes and power supply used in the study of Example 2 were also used for this study. DSG solution (1.5 ml, 15.34 mg) was added to the donor (active) electrode just prior to the experiment. The electrodes were applied to each of the four participating fuzzy rats (one on either side of the spine). Prior to DSG treatment, the animals were anesthetized with METOFANE (methoxyflurane, Pitman-Moore, Mundelein, Ill.) and the hair on the dorsal side depilated. An anesthetic cocktail consisting of 10 ml of KETASET (ketamine HCL, 100 mg/ml; Aveco Co., Inc., Fort Dodge, Iowa) mixed with 2 ml ROMPUN (xylazine, 20 mg/ml; Mobay Corp., Shawnee, Kans.) was used at 0.1 ml per 100 g in order to maintain the animals under anesthesia during the treatment period. A current density of 0.5 mA/cm^2 /hr (2.9 mA total) was used to deliver the DSG. The four rats received DSG by iontophoresis for 3 hours daily over a period of three days (Days 0, 1 and 2) (Day 0 was the first day of the experiment). During this period food and water were provided ad libitum and these four animals were housed individually in metabolic cages so that urine could be collected for analysis. On Day 3 the animals were weighed and then returned to their regular cages for the remaining duration of the study. […]
The blood samples were stored on ice for 1 hour to coagulate and then centrifuged. The serum was separated and analyzed using an ELISA method described below. […] Aliquots were analyzed by HPLC. […]

[10] = cited from earlier work
[11] = cited from earlier work; remark: listed apart in the source
[12] = test system: human anti-mouse antibody (HAMA) response; conditions: patients treated with monoclonal antibody therapy, cited from earlier work

N=C(N)NCCCCCCC(=O)NC(O)C(=O)NCCCCNCCCN (stereo not drawn) [DSG]
clinical activity as an immunosuppressant [1]: clinical activity as an immunosuppressant
immunosuppressive activity (in words) [2]: excellent immunosuppressive activity
immunosuppressive potency relative to marketed immunosuppressants ([2]; versus cyclosporin A, azathioprine and prednisone): at least as potent as other, currently marketed immunosuppressants
inhibition of interleukin-2 production [3]: does not inhibit interleukin-2production
activity in extending allograft survival [4]: significant activity in extending allograft survival
change of permeation rate in later time period [5]: permeation rate decreased during the later time period
equivalent delivery for a 10 cm^2 delivery system [5]: 135 mg/day
equivalent dose for a 70 kg average body weight person [5]: 2 mg/kg/day
expected delivery for a 20 cm^2 donor electrode [5]: 270 mg/day
passive permeation across human cadaver skin [5]: very little passive permeation
permeation rate across human cadaver skin [5]: 564 μg/cm^2 /hr
antitumor efficacy [6]: appears to have antitumor efficacy
activity in animal models of autoimmune disease [7]: effective in animal models in the treatment of autoimmune diseases like rheumatoid arthritis, diabetes and multiple sclerosis
dose delivered by iontophoresis per body weight [8]: 15 to 20 mg/kg
serum level of DSG ([8]; topical or ocular, 3 h): about 18 μg/ml
antibody level in treated animals as % of control ([9]; Day 14, iontophoresis 3 hours daily for three days): 6%
suppression of immune response ([9]; iontophoresis 3 hours daily for three days, versus untreated control): substantially suppressed the immune response; also recorded: effectively suppressed the immune response
deaths before Day 7 ([9]; of four rats treated by iontophoresis): Two
dose delivered relative to maximum tolerated dose (MTD) ([9]; rat, in vivo): proximate to the maximum tolerated dose (MTD)
side effect profile ([10]; compared to cyclosporin A, azathioprine and prednisone (b7 also OKT3)): superior side effect profile
dose limiting toxicity ([10]; in vivo): myelosuppression
nephrotoxicity ([10]; unlike cyclosporin A): not nephrotoxic
Cmax ([11]; 4 mg/kg by 3 hour i.v. infusion): about 10 μg/ml
clearance from plasma (in words) ([11]; human, in vivo): relatively rapid clearance
plasma clearance ([11]; human, in vivo): about 48,000 ml/hr
activity against HAMA response [12]: immunosuppressive activity against the human anti-mouse antibody (HAMA) response
activity against HAMA response ([12]; listed as Deoxyspergualin): useful to suppress human anti-mouse antibody (HAMA) response
